The subject of data set [1] is SK-MEL-2 human melanoma cancer cell line. It is filed as cell-based. The conditions noted are these: at the GI50 concentration, in comparison to control cells.
Data set [2] relates to IMR-32 neuroblastoma cell line. As to the kind of experiment: cells. It is filed as cell-based, human. The conditions noted are these: SRB assay, 48 h. The protocol: (§1) All the newly synthesized compounds were screened for their in vitro anticancer activity against six cancer cell lines: SK-MEL-2, MCF-7, IMR-32, MG-63, HT-29 and Hep-G2 by SRB assay, using adriamycin as a standard drug. All the synthesized derivatives 4(a–n) were also tested for their cytotoxic effect on normal cell lines i.e., NIH/3T3 (murine embryonic fibroblast by the SRB assay method. The cell lines were grown in RPMI 1640 medium containing 10% fetal bovine serum and 2 mM L-glutamine. For the present screening experiments, cells were inoculated into 96 well microtiter plates in 90 µL at 5000 cells per well. After cell inoculation, the microtiter plates were incubated at 37 °C, 5% CO2, 95% air and 100% relative humidity for 24 h prior to addition of experimental drugs. Experimental drugs were solubilized in appropriate solvent to prepare stock of 10^−2 concentration. At the time of experiment four 10-fold serial dilutions were made using complete medium. Aliquots of 10 µL of these different drug dilutions were added to the appropriate micro-titer wells already containing 90 µL of medium, resulting in the required final drug concentrations. After compound addition, plates were incubated at standard conditions for 48 h. and assay was terminated by the addition of cold trichloroacetic acid (TCA). Cells were fixed in situ by the gentle addition of […] (final concentration, 10% TCA) and incubated for 60 min at 4 °C. The supernatant was discarded; the plates were washed five times with tap water and air dried.
(§2) Sulforhodamine B (SRB) solution (50 µL) at 0.4% (w/v) in 1% acetic acid was added to each of the wells, and plates were incubated for 20 min at room temperature. After staining, unbound dye was recovered and the residual dye was removed by washing five times with 1% acetic acid. The plates were air dried. Bound stain was subsequently eluted with 10 mM trizma base, and the absorbance was read on an ELISA plate reader at a wavelength of 540 nm with 690 nm reference wavelength. All the tests were repeated in at least three independent experiments at the concentrations of 10, 20, 40 and 80 µg/mL [57].
(In general: In SRB staining, fixed cells bind dye roughly in proportion to their protein.)

Data set [3] has as its system NIH/3T3 normal murine embryonic fibroblast cell line. As to the kind of experiment: in vitro. It is filed as cell-based. The conditions noted are these: SRB assay. The protocol:
as §1, §2

For data set [4], the system named is MG-63 human osteosarcoma cell line. In words: cells. The class given is cell-based. The conditions noted are these: SRB assay, 48 h. The protocol:
as §1, §2

Data set [5] has as its system HT-29 human colon cancer cell line. In words: cells. It is filed as cell-based. Particulars: for GI50: SRB assay, 48 h, HT-29. The method, then:
as §1, §2

Data set [6] deals with MCF-7 human breast cancer cell line. As to the kind of experiment: cells. The class given is cell-based. The conditions noted are these: 48 h. The protocol: as §1, §2
Data set [7] relates to Hep-G2 human hepatoma cell line. In words: cells. The class given is cell-based. The conditions noted are these: SRB assay, 48 h, Hep-G2. The protocol: as §1, §2
Data set [8] concerns SK-MEL-2 human melanoma cancer cell line. In words: cells. It is filed as cell-based. Particulars: SRB assay, 48 h, read-out: GI50 SKMEL-2. The method, then:
as §1, §2

Data set [9] deals with IMR-32 neuroblastoma cell line. It is filed as cell-based, human. Particulars: at the GI50 concentration, in contrast to control cells.
The nature of data set [10]: in vitro. Particulars: mouse; SRB assay, normal murine embryonic fibroblast cell line; read-out: GI50 NIH/3T3. The class given is cell-based. The protocol:
as §1, §2

Like-named read-outs stand apart in the source and are kept apart here.

As to `CCOP(=O)(OCC)C(NN=C1C(=O)Nc2ccccc21)c1ccc(O)c(OC)c1` (stereo not drawn) [4g, Diethyl(4-hydroxy-3-methoxyphenyl)(2-(2-oxoindolin-3-ylidene)hydrazinyl)methylphosphonates], the “morphological changes in SK-MEL-2 cancer cell lines” value in data set [1] was “cell detachment, cell wall deformation, cell shrinkage and reduced number of viable cells”. In addition, the GI50 in data set [2] is above 100 µM; in data set [3], above 250 µM; in data set [4] it was below 0.1 µM; in data set [5], 12.2 µM; in data set [6] (SRB assay), above 100 µM; in data set [7], 32 µM. In data set [8], the GI50 is 24 µM.
In turn, `CCOP(=O)(OCC)C(NN=C1C(=O)Nc2ccccc21)c1ccc(O)cc1` (stereo not drawn) [4f, Diethyl(4-hydroxyphenyl)(2-(2-oxoindolin-3-ylidene)hydrazinyl)methylphosphonate] had a melting point of 140 to 142 °C. Moreover, the “morphological changes in IMR-32 cancer cells” value in data set [9] was “cell detachment, cell wall deformation, cell shrinkage and reduced number of viable cells”. In [2] (Homo sapiens), this compound showed a GI50 below 0.1 µM. In addition, the GI50 in [10] was above 250 µM. For the same compound, in [4] (Homo sapiens), the GI50 was below 0.1 µM. Moreover, the “anticancer activity compared with standard drug adriamycin, HT-29” value in data set [5] (HT-29 (human colon cancer) cell line) is “equipotent”. The GI50 in [5] (Homo sapiens) is below 0.1 µM. The compound also gave a GI50 in data set [6] (Homo sapiens, MCF7, SRB assay) above 100 µM. The same compound came in with a GI50 in data set [7] (Homo sapiens, HepG2) of 12.2 µM. For the same compound, in data set [8] (Homo sapiens), the GI50 turned out to be 51.6 µM.

What is called melting point is the temperature, or range, at which the solid turns liquid.

Values taken from publication PMC6222476 (Molecules : A Journal of Synthetic Chemistry and Natural …, 2018).
